Experimental data reported in publication PMC9146942 (International Journal of Molecular Sciences, 2022).
Entries after “also recorded” stand apart in the source; their conditions may differ. Read-outs that look alike come from different tables or passages of the source.

Assays:
human Panx1 channels = target: T1, human Panx1 channels (Homo sapiens, UniProt Q96RD7); assay: Panx1 channel activity assay (extracellular ATP release after osmotic shock); format: cell-based; conditions: for Concentration with significant inhibition of Panx1 channel activity (extracellular ATP release): 45 min exposure (15 min preincubation + 30 min osmotic buffer), combination given as final lopinavir concentration; for Effect on extracellular ATP release / Panx1 channel activity (in words): 45 min exposure, six concentrations BC/10 to BCx10
T1 construct: expressed in transfected cells; host or cells: Dubca cells, transduced, stably overexpressing human Panx1

Panx1 protein expression = Panx1 protein expression by immunoblot analysis; format: cell-based, human; conditions: 24 h exposure, BC, BC/2, BC/10; total Panx1 and glycosylated isoforms
Panx1 mRNA expression = Panx1 mRNA expression by RT-qPCR analysis; format: cell-based, human; conditions: 24 h exposure, BC, BC/2, BC/10
[1] = cited from earlier work
[2] = system: transduced Dubca cells overexpressing human Panx1; assay: Cell viability (MTT) assay, 24 h exposure, for CC10 determination; conditions: sigmoidal curve fit
[3] = system: transduced Dubca cells overexpressing human Panx1; conditions: dromedary camel
[4] = Cell viability (MTT) assay, 45 min exposure in classic buffer; conditions: dromedary camel, transduced Dubca cells overexpressing human Panx1
[5] = maximum plasma concentration extracted from literature and recalculated to µM, reference per cell

T1 sequence (Q96RD7 whole entry): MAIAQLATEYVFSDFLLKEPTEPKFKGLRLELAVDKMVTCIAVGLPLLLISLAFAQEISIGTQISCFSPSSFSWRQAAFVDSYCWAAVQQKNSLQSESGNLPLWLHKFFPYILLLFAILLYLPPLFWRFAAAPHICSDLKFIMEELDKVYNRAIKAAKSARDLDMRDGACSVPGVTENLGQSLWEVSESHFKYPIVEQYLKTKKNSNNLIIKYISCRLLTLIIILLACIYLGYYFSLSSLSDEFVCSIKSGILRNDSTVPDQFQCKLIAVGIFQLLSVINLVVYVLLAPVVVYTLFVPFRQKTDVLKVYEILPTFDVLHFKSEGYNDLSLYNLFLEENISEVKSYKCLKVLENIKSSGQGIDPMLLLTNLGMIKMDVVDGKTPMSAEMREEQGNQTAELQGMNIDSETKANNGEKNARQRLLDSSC

SMILES	Effect on Panx1 protein levels (Panx1 protein expression)	Effect on Panx1 mRNA levels (Panx1 mRNA expression)	Cmax [1, 5] [µM]	CC10 (concentration inducing 10% of cell death) [2] [µM]	Effect on extracellular ATP release / Panx1 channel activity (in words) (human Panx1 channels)	CC10 (concentration inducing 10% of cell death) [3] [µM]	other results
CCN(CCO)CCCC(C)Nc1ccnc2cc(Cl)ccc12 (stereo not drawn) [Hydroxychloroquine (sulphate), hydroxychloroquine sulphate]	without affecting mRNA or protein levels	without affecting mRNA or protein levels	0.97	23			Concentration with significant inhibition of Panx1 channel activity (extracellular ATP release) (human Panx1 channels): 23 µM; Effect on extracellular ATP release / Panx1 channel activity (in words) (human Panx1 channels; listed as hydroxychloroquine): inhibit Panx1 channel activity; Effect on extracellular ATP release / Panx1 channel activity (in words) (human Panx1 channels; listed as hydroxychloroquine sulphate): significant decrease in extracellular ATP release
CC(C)c1nc(CN(C)C(=O)N[C@H](C(=O)N[C@@H](Cc2ccccc2)C[C@H](O)[C@H](Cc2ccccc2)NC(=O)OCc2cncs2)C(C)C)cs1 [Ritonavir, ritonavir]			22.5	12	did not decrease extracellular ATP release		
CCN(CC)CCCC(C)Nc1ccnc2cc(Cl)ccc12 (stereo not drawn) [Chloroquine (diphosphate), chloroquine diphosphate]			0.81			18	
Cc1cccc(C)c1OCC(=O)N[C@@H](Cc1ccccc1)[C@@H](O)C[C@H](Cc1ccccc1)NC(=O)[C@H](C(C)C)N1CCCNC1=O [Lopinavir, lopinavir]	without affecting mRNA or protein levels	without affecting mRNA or protein levels		17	significant decrease in extracellular ATP release; also recorded: inhibit Panx1 channel activity		Concentration with significant inhibition of Panx1 channel activity (extracellular ATP release) (human Panx1 channels): 85 µM
C[C@@H]1C[C@H]2[C@@H]3CCC4=CC(=O)C=C[C@]4(C)[C@@]3(F)[C@@H](O)C[C@]2(C)[C@@]1(O)C(=O)CO [Dexamethasone, dexamethasone]			0.63			>200	
CC[C@H]1OC(=O)[C@H](C)[C@@H](O[C@H]2C[C@@](C)(OC)[C@@H](O)[C@H](C)O2)[C@H](C)[C@@H](O[C@@H]2O[C@H](C)C[C@H](N(C)C)[C@H]2O)[C@](C)(O)C[C@@H](C)CN(C)[C@H](C)[C@@H](O)[C@]1(C)O [Azithromycin (dihydrate), azithromycin dihydrate]			0.52	59			viability at 45 min, 590 µM [4]: 74%
CCC(CC)COC(=O)[C@H](C)N[P@](=O)(OC[C@H]1O[C@@](C#N)(c2ccc3c(N)ncnn23)[C@H](O)[C@@H]1O)Oc1ccccc1 [Remdesivir]			9.03		comparable concentration-dependent trend	>100	
NC(=O)c1nc(F)c[nH]c1=O [Favipiravir, favipiravir]	without affecting mRNA or protein levels	without affecting mRNA or protein levels		>200	significant decrease in extracellular ATP release; also recorded: inhibit Panx1 channel activity		Cmax ([1]; in vivo): 53.4 µM
